Experimental data published in EP4768499A1, “MACROCYCLIC PEPTIDE COMPOUND HAVING CELL MEMBRANE PERMEABILITY AND METABOLIC STABILITY, AND LIBRARY CONTAINING SAME” (Chugai Seiyaku Kabushiki Kaisha, priority 2023, dated 2025).
Like-named read-outs stand apart in the source and are kept apart here. Starred links: 1 amine or outer side, 2 acyl side, 3 side chain; linkers in the order of their positions; H or OH if unused. Non-standard residues stand in square brackets, D forms with d. Residues, ends and D or L forms follow the SMILES beside them. *: point of attachment. NMedβ3hAla = C[C@H](CC(=O)[*:2])N(C)[*:1]; NMeF = CN[C@@H](Cc1ccccc1)C(=O)O; NMeGABA = CN(CCCC(=O)[*:2])[*:1]; NMeI = CC[C@H](C)[C@H](NC)C(=O)O; NMeT = CN[C@H](C(=O)O)[C@@H](C)O; hPhe = N[C@@H](CCc1ccccc1)C(=O)O; NMeβAla = CN(CCC(=O)[*:2])[*:1]; NMeL = CN[C@@H](CC(C)C)C(=O)O; NMeV = CN[C@H](C(=O)O)C(C)C; d(β3hA) = C[C@@H](N)CC(=O)O; NMeAbu = CC[C@H](NC)C(=O)O; NMeA = CN[C@@H](C)C(=O)O; dNMeA = CN[C@H](C)C(=O)O; Abu = CC[C@H](N)C(=O)O; βAla = NCCC(=O)O; Sar = CNCC(=O)O; tBu = CC(C)(C)*

Experiments:
[1] = Metabolic stability test: liver microsomal stability assay; format: in vitro ADME, mouse; details: for microsomal CLint at 1 µM: male, pH 7.4, presence of NADPH, read-out: Mouse Hepatic Microsome CLh,int NADPH(+)
[2] = tested on: Caco-2 cells; experiment: Membrane permeability test using Caco-2 cells with preincubation; format: in vitro ADME
[3] = as above; format: in vitro ADME; details: Caco-2
[4] = mouse liver microsomes 0.5 mg protein/mL, compound 1 µM
[5] = mouse liver microsomes 0.5 mg protein/mL, compound 1 µM, absence of NADPH
[6] = Caco-2 cells, preincubation 20 to 24 hours, apical FaSSIF/HBSS 1% DMSO pH 6.0, basal HBSS 4% BSA pH 7.4, basal sample at 180 minutes
[7] = preincubation 20 to 24 hours, Apical FaSSIF/HBSS pH 6.0, Basal HBSS 4% BSA pH 7.4, 180 minutes, read-out: Caco2 Papp

Compound	microsomal CLint at 1 µM [1, 4]	Mouse Hepatic Microsome CLh,int NADPH(-) [1, 5]	Caco2 Papp (10^-6 cm/sec) [2, 6]	Papp A→B [3, 7]	Mouse Hepatic Microsome CLh,int NADPH(-) [1]	Caco2 Papp (10^-6 cm/sec) ([2]; Caco-2)	Papp A→B [3]
CC[C@H]1C(=O)N(C)[C@@H](C)C(=O)N(C)[C@@H](C(C)C)C(=O)N[C@H](C)CC(=O)N[C@H](C(C)C)C(=O)N(C)[C@@H](CC(C)C)C(=O)N[C@@H](CC(C)C)C(=O)N(C)[C@@H](C(C)C)C(=O)N(C)[C@@H](CC(C)C)C(=O)N(C)CC(=O)N[C@@H]([C@@H](C)O)C(=O)N(C)[C@@H](Cc2ccccc2)C(=O)N[C@@H](COC(C)(C)C)C(=O)N1C [pd131] (cyclo(L[NMeV][NMeL][Sar]T[NMeF]S(tBu)[NMeAbu][NMeA][NMeV][d(β3hA)][dV][NMeL]))	17.8 µL/min/mg	13.5 µL/min/mg Protein	2.18 10^-6 cm/sec	2.18 ×10⁻⁶ cm/s			
CC[C@H](C)[C@@H]1NC(=O)[C@H](C)N(C)C(=O)[C@H]([C@@H](C)O)N(C)C(=O)[C@H](CC(C)C)N(C)C(=O)[C@H](C(C)C)NC(=O)[C@H](Cc2ccccc2)N(C)C(=O)[C@H](Cc2ccccc2)N(C)C(=O)[C@H](C)NC(=O)[C@H](CC)N(C)C(=O)[C@H]([C@@H](C)CC)NC(=O)CCCN(C)C(=O)C[C@@H](C)NC(=O)[C@H](C(C)C)N(C)C1=O [pd132] (cyclo(A[NMeF][NMeF]V[NMeL][NMeT][NMeA]I[NMeV][d(β3hA)][NMeGABA]I[NMeAbu]))	16.2 µL/min/mg	7.7 µL/min/mg Protein	0.36 10^-6 cm/sec	0.36 ×10⁻⁶ cm/s			
CC[C@H](C)[C@@H]1NC(=O)[C@H](CCc2ccccc2)NC(=O)[C@H](CC(C)C)N(C)C(=O)[C@H](C)N(C)C(=O)[C@H](Cc2ccccc2)N(C)C(=O)[C@@H]2CCCN2C(=O)[C@H]([C@@H](C)CC)NC(=O)[C@H](CC(C)C)N(C)C(=O)CCN(C)C(=O)C[C@@H](C)NC(=O)[C@H](CC(C)C)N(C)C(=O)[C@H]([C@@H](C)O)NC(=O)[C@H](C)N(C)C1=O [pd133] (cyclo(I[NMeA]T[NMeL][d(β3hA)][NMeβAla][NMeL]IP[NMeF][NMeA][NMeL][hPhe]))	25.6 µL/min/mg	23.6 µL/min/mg Protein	0.53 10^-6 cm/sec	0.53 ×10⁻⁶ cm/s			
CC[C@H](C)[C@@H]1NC(=O)[C@H](CC(C)C)N(C)C(=O)[C@H](C)N(C)C(=O)[C@H](C)N(C)C(=O)C[C@@H](C)NC(=O)[C@H](CC(C)C)NC(=O)[C@H](CC(C)C)N(C)C(=O)CN(C)C(=O)[C@H]([C@@H](C)O)NC(=O)[C@H]([C@@H](C)CC)N(C)C(=O)[C@H](CC(C)C)N(C)C(=O)[C@H](C(C)C)NC(=O)[C@H](Cc2ccccc2)N(C)C1=O [pd134] (cyclo(I[NMeF]V[NMeL][NMeI]T[Sar][NMeL]L[d(β3hA)][NMeA][NMeA][NMeL]))	38.5 µL/min/mg	11.4 µL/min/mg Protein	0.75 10^-6 cm/sec	0.75 ×10⁻⁶ cm/s			
CC[C@H](C)[C@@H]1NC(=O)[C@@H]2CCCN2C(=O)[C@H](C(C)C)N(C)C(=O)[C@@H](C)N(C)C(=O)C[C@@H](C)NC(=O)[C@H](C(C)C)N(C)C(=O)[C@H](Cc2ccccc2)N(C)C(=O)[C@H](COC(C)(C)C)NC(=O)[C@H](CC(C)C)N(C)C(=O)[C@H](C)N(C)C(=O)[C@H](CC(C)C)N(C)C(=O)[C@H]([C@@H](C)O)NC(=O)[C@H](Cc2ccccc2)N(C)C1=O [pd136] (cyclo(I[NMeF]T[NMeL][NMeA][NMeL]S(tBu)[NMeF][NMeV][d(β3hA)][dNMeA][NMeV]P))	27.2 µL/min/mg	28.8 µL/min/mg Protein	0.53 10^-6 cm/sec	0.53 ×10⁻⁶ cm/s			
CC[C@H](C)[C@@H]1NC(=O)[C@H](C)N(C)C(=O)CCCN(C)C(=O)C[C@@H](C)NC(=O)[C@H](C(C)C)N(C)C(=O)[C@H](CCc2ccccc2)NC(=O)[C@H](C)N(C)C(=O)[C@H]([C@@H](C)O)N(C)C(=O)[C@H](CC(C)C)N(C)C(=O)[C@H](C(C)C)NC(=O)[C@H](Cc2ccccc2)N(C)C(=O)[C@H](C)N(C)C(=O)[C@H](C(C)C)N(C)C1=O [pd137] (cyclo(I[NMeV][NMeA][NMeF]V[NMeL][NMeT][NMeA][hPhe][NMeV][d(β3hA)][NMeGABA][NMeA]))	14.1 µL/min/mg	7.5 µL/min/mg Protein	0.55 10^-6 cm/sec	0.55 ×10⁻⁶ cm/s			
CC[C@H](C)[C@@H]1NC(=O)[C@H](CC(C)C)N(C)C(=O)[C@H](C)N(C)C(=O)[C@H](Cc2ccccc2)N(C)C(=O)[C@@H]2CCCN2C(=O)[C@H](CC(C)C)N(C)C(=O)[C@H](CCc2ccccc2)NC(=O)CCN(C)C(=O)C[C@@H](C)NC(=O)[C@H](CC(C)C)N(C)C(=O)[C@H]([C@@H](C)O)NC(=O)CCN(C)C(=O)[C@H](C(C)C)N(C)C1=O [pd138] (cyclo(I[NMeV][NMeβAla]T[NMeL][d(β3hA)][NMeβAla][hPhe][NMeL]P[NMeF][NMeA][NMeL]))	39.3 µL/min/mg	11.1 µL/min/mg Protein	0.23 10^-6 cm/sec	0.23 ×10⁻⁶ cm/s			
CC[C@H](C)[C@@H]1NC(=O)[C@H](CC(C)C)N(C)C(=O)C[C@@H](C)NC(=O)[C@H](C(C)C)N(C)C(=O)[C@H](COC(C)(C)C)NC(=O)[C@H](CC)N(C)C(=O)[C@H](Cc2ccccc2)N(C)C(=O)[C@H](CC(C)C)NC(=O)[C@@H]2CCCN2C(=O)[C@H]([C@@H](C)O)N(C)C(=O)[C@H](CC(C)C)N(C)C(=O)[C@H](CC)N(C)C(=O)[C@H](CC(C)C)N(C)C1=O [pd139] (cyclo(I[NMeL][NMeAbu][NMeL][NMeT]PL[NMeF][NMeAbu]S(tBu)[NMeV][d(β3hA)][NMeL]))	32.3 µL/min/mg	28.2 µL/min/mg Protein	1.24 10^-6 cm/sec	1.24 ×10⁻⁶ cm/s			
CC[C@H]1C(=O)N(C)[C@@H](Cc2ccccc2)C(=O)N(C)[C@@H](CC(C)C)C(=O)N[C@@H](CC(C)C)C(=O)N(C)[C@@H](C(C)C)C(=O)N[C@H](C)CC(=O)N(C)CC(=O)N(C)[C@@H](C(C)C)C(=O)N(C)[C@@H](CC(C)C)C(=O)N(C)[C@@H](C)C(=O)N(C)[C@@H](CC(C)C)C(=O)N[C@@H]([C@@H](C)O)C(=O)N(C)CC(=O)N1C [pd140] (cyclo(L[NMeV][d(β3hA)][Sar][NMeV][NMeL][NMeA][NMeL]T[Sar][NMeAbu][NMeF][NMeL]))	10.5 µL/min/mg	10.3 µL/min/mg Protein	0.31 10^-6 cm/sec	0.31 ×10⁻⁶ cm/s			
CC[C@H](C)[C@@H]1NC(=O)[C@H](CC(C)C)N(C)C(=O)[C@H](CC(C)C)NC(=O)CCN(C)C(=O)C[C@@H](C)N(C)C(=O)[C@H](CC(C)C)N(C)C(=O)CNC(=O)[C@@H]2CCCN2C(=O)[C@H](CC(C)C)N(C)C(=O)CCNC(=O)[C@H]([C@@H](C)CC)N(C)C(=O)[C@H](CCc2ccccc2)NC(=O)[C@H](Cc2ccccc2)N(C)C1=O [pd141] (cyclo(G[NMeL][NMedβ3hAla][NMeβAla]L[NMeL]I[NMeF][hPhe][NMeI][βAla][NMeL]P))					21.1 µL/min/mg Protein	0.24 10^-6 cm/sec	0.24 ×10⁻⁶ cm/s
CC[C@H](C)[C@@H]1NC(=O)[C@H](CC(C)C)N(C)C(=O)[C@H](CC(C)C)NC(=O)CCN(C)C(=O)C[C@@H](C)N(C)C(=O)CN(C)C(=O)[C@H](CC(C)C)N(C)C(=O)[C@@H]2CCCN2C(=O)[C@H](CC(C)C)N(C)C(=O)[C@H](COC(C)(C)C)NC(=O)[C@H]([C@@H](C)CC)N(C)C(=O)[C@H](CCc2ccccc2)NC(=O)[C@H](Cc2ccccc2)N(C)C1=O [pd142] (cyclo(I[NMeF][hPhe][NMeI]S(tBu)[NMeL]P[NMeL][Sar][NMedβ3hAla][NMeβAla]L[NMeL]))	31.7 µL/min/mg	33.9 µL/min/mg Protein	0.71 10^-6 cm/sec	0.71 ×10⁻⁶ cm/s			
CC[C@H](C)[C@@H]1NC(=O)[C@H](CC(C)C)N(C)C(=O)CCCN(C)C(=O)C[C@@H](C)N(C)C(=O)[C@H](CC(C)C)NC(=O)[C@H](CC)N(C)C(=O)[C@H](C(C)C)N(C)C(=O)[C@H](C)N(C)C(=O)[C@H](CC(C)C)N(C)C(=O)[C@H](COC(C)(C)C)NC(=O)[C@H](Cc2ccccc2)N(C)C(=O)[C@H](Cc2ccccc2)N(C)C(=O)CN(C)C1=O [pd143] (cyclo(I[Sar][NMeF][NMeF]S(tBu)[NMeL][NMeA][NMeV][NMeAbu]L[NMedβ3hAla][NMeGABA][NMeL]))	39.3 µL/min/mg	21.0 µL/min/mg Protein	4.73 10^-6 cm/sec	4.73 ×10⁻⁶ cm/s			
CC[C@H](C)[C@@H]1NC(=O)[C@H](C)N(C)C(=O)[C@H]([C@@H](C)O)NC(=O)[C@H](CC(C)C)N(C)C(=O)[C@H](COC(C)(C)C)NC(=O)[C@H](Cc2ccccc2)N(C)C(=O)[C@H]([C@@H](C)CC)NC(=O)CNC(=O)[C@H](Cc2ccccc2)N(C)C(=O)[C@H](CC(C)C)N(C)C(=O)CCCN(C)C(=O)C[C@@H](C)N(C)C(=O)[C@H](CC(C)C)NC1=O [pd145] (cyclo(GI[NMeF]S(tBu)[NMeL]T[NMeA]IL[NMedβ3hAla][NMeGABA][NMeL][NMeF]))	35.5 µL/min/mg	35.7 µL/min/mg Protein	0.05 10^-6 cm/sec	0.05 ×10⁻⁶ cm/s			
CC[C@@H]1NC(=O)[C@H](Cc2ccccc2)N(C)C(=O)[C@@H]2CCCN2C(=O)[C@H](CC(C)C)N(C)C(=O)[C@H](C(C)C)NC(=O)[C@H](CC(C)C)N(C)C(=O)[C@H]([C@@H](C)O)NC(=O)[C@H](Cc2ccccc2)N(C)C(=O)CN(C)C(=O)C[C@@H](C)N(C)C(=O)[C@H](C(C)C)NC(=O)[C@H](COC(C)(C)C)NC(=O)[C@H](C)N(C)C1=O [pd146] (cyclo([Abu][NMeA]S(tBu)V[NMedβ3hAla][Sar][NMeF]T[NMeL]V[NMeL]P[NMeF]))	20.3 µL/min/mg	14.1 µL/min/mg Protein	0.20 10^-6 cm/sec	0.2 ×10⁻⁶ cm/s			
